What was measured:
A549 tumor xenograft = A549 tumor xenograft model; type: in vivo, BABL/c female nude mice; settings: 80 mg/kg, 3 weeks
Description: Five-week-old immunodeficient BABL/c female nude mice, weighing 18 to 20 g, were purchased and maintained under specific pathogen-free conditions. They were implanted subcutaneously with 1 × 10^7 A549 cells. Tumor sizes were assessed using the two largest perpendicular axes. Tumor volume was calculated using the formula V = (a × b^2)/2, where a is length and b is width. The tumor volume was measured every 3 days. When tumor volumes reached 50 mm^3, the mice were randomized to drug-treated or vehicle groups (five mice per group). Tumor growth was monitored every 3 days using a Vernier caliper. […] All animal studies were conducted with the approval of the Laboratory Animal Welfare and Ethical Committee of China Medical University.
After incubation with hydrogen peroxide, the slides were washed with PBS and then incubated with 0.4% Triton X-100. The sections were incubated with blocking solution (Dako Protein Block, Dako, Glostrup, Denmark) for 30 min at room temperature after washing with PBS. The sections were further incubated with primary antibodies (Ki67 and cleaved caspase 3 [all from Cell Signaling Technology], diluted at 1:200) overnight at 4 °C, washed with PBS several times, incubated with the corresponding biotinylated secondary antibodies (diluted at 1:500), and then washed with PBS multiple times. After adding avidin-biotin complexes (Vector Laboratories), the sections were visualized using diaminobenzidine (DAB) detection reagent (Enzo Life Sciences, Farmingdale, NY, USA) and mounted with a mounting solution (Vector Laboratories, Burlingame, CA, USA).

HTB-125 cell line = assay: Selectivity index against HTB-125; type: cell-based; settings: SI = CC50/IC50
BRaf kinase = BRaf kinase (Homo sapiens, UniProt P15056); assay: ADP-Glo kinase assay, BRaf; type: biochemical; settings: averages from triplicate assays
Chain of BRaf kinase (P15056 whole entry): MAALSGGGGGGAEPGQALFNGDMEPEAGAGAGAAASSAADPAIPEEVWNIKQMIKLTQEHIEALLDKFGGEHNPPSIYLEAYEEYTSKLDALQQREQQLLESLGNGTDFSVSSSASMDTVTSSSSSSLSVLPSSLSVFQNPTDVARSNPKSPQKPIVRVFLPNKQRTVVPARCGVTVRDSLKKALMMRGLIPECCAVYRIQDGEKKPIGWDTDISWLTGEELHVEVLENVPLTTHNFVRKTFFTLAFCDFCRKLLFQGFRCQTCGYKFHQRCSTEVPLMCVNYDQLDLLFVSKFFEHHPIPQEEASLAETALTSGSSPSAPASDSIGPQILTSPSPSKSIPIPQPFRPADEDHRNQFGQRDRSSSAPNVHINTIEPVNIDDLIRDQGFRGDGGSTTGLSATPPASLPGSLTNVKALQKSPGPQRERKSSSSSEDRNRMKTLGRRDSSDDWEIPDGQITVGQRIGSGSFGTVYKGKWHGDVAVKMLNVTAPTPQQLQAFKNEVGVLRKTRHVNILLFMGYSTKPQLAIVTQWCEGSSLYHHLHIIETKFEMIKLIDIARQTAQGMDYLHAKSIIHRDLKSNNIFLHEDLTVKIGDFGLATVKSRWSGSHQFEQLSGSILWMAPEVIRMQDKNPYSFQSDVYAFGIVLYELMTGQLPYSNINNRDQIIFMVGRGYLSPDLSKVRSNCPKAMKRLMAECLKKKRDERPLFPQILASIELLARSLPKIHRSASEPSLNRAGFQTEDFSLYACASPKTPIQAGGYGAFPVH
Description: The ADP-Glo™ kinase assay (Promega, Madison, WI) was used to screen target compounds for their inhibition effects for BRaf, EGFR kinase. The kinase assay was carried out in a 96-well plate, in a volume of 25 μL HEPES (pH 7.3) solvent containing 1.6 μg/mL EGF, and 20 ng of EGFR kinase, or 50 ng BRaf kinase, and 10 μM ATP (Promega, Madison, WI). […] Reactions in each well were started immediately by adding ATP and kept going for half an hour under 30 °C in a constant temperature incubator (Bluepard, Shanghai, China). After the plate cooled for 5 min at room temperature, 25 μl of ADP-Glo reagent was added into each well to stop the reaction and consume the remaining […] within 40 min. At the end, 50 μl of kinase detection reagent was added into the well and incubated for 1 h to produce a luminescence signal.

[1] = HPLC analysis of stability in cell culture medium; type: physicochemical
Description: The HPLC system consisted of e2695 Separations Module pump coupled to a 2489 UV/Visible detector (Waters Corp., Milford, MA, USA). Chromatograms was achieved on a Waters BDS C18 column (200 mm × 4.6 mm, 5 um). Detection was performed at a wavelength of 260 nm at 37 °C. The mobile phase consisted of 0.1% phosphoric acid water /methanol (50/50, v/v) at a flow rate of 1.0 mL/min. A10 µL of sample was injected. The results are loaded in the supplemental file.

[2] = system: P53, caspase-3, bcl-2/bax, cleaved caspase-3; assay: Western blot apoptotic proteins, H460; type: cell-based, human; settings: H460, 0.5, 1.0, 1.5 μM, 24 h
Description: A549 cells, H460 cells and HUVECs were treated with different concentrations of compound L14e for 24 h. Primary antibodies (100 μL/cm^2): P53(10442-1-AP, Proteintech Group),caspase-3 (19677-1-AP, Proteintech Group), bax (50599-2-lg, Proteintech Group), bcl-2 (12789-1-AP, Proteintech Group), cleaved caspase-3 (25546-1-AP, Proteintech Group), β-actin (60008-1-lg, Proteintech Group), EGFR (ab21074, Abcam), AKT (#2920, Cell Signaling Technology), ERK1/2 (#4370, Cell Signaling Technology), VEGFR-2 (#9698, Cell Signaling Technology), p-EGFR (ab40815, Abcam), p-AKT (#4060, Cell Signaling Technology), p-ERK1/2 (#4695, Cell Signaling Technology), p-VEGFR-2 (#3770, Cell Signaling Technology), and GAPDH (ab181603, Abcam). The cellular levels of proteins were determined by standard Western blotting. Details were given in Supplementary Materials and Methods.
A549 cells, H460 cells and HUVECs were treated with different concentrations of compound L14e for 24 h, and collected to establish their respective treatment groups. […]
Extracted proteins were separated from each other using polyacrylamide electrophoresis on a 10 % gel (Beyotime Biotechnology Company, Shanghai, China) and transferred to a polyvinylidene fluoride (PVDF) membrane. […] Gray values of protein bands were quantitatively analyzed, with the gray value of β-actin(GAPDH) band as the reference.

In the case of `O=C(Nc1cccc(Cl)c1)Nc1ccccc1NS(=O)(=O)c1c[nH]c(=O)[nH]c1=O` [Compound L14e, N'-(3-chlorophenyl)-2-(2,4-dihydroxypyrimidine-5-sulfonamido)phenyl urea], the “changes in body weight in xenograft mice” value (A549 tumor xenograft) is reported as “negligible changes in body weight”, the “expression of Ki67 in tumors (IHC)” value (A549 tumor xenograft) is reported as “significantly decreased” and the “expression of cleaved-caspase-3 in tumors (IHC)” value (A549 tumor xenograft) is reported as “significantly increased”. The “growth of xenograft tumors” value (A549 tumor xenograft; intraperitoneal injection) was “significantly suppressed the growth of xenograft tumors”, the “tumor growth inhibition (TGI)” value (A549 tumor xenograft; intraperitoneal injection) was 84.86 and the “SI (Selectivity index) HTB-125” value (HTB-125 cell line) was 10.39. For the same compound, the IC50 (BRaf kinase) was 1090 nM, the “HPLC-UV Measure Concentration” value ([1]; nominal 0.625 µM, 1h) was 0.621 ± 0.005 µM and the “HPLC-UV Measure Concentration” value ([1]; nominal 0.625 µM, 12h) was 0.623 ± 0.001 µM. The “HPLC-UV Measure Concentration” value ([1]; nominal 0.625 µM, 24h) was 0.625 ± 0.002 µM, the “HPLC-UV Measure Concentration” value ([1]; nominal 0.625 µM, 36h) was 0.625 ± 0.001 µM and the “HPLC-UV Measure Concentration” value ([1]; nominal 1.25 µM, 1h) was 1.246 ± 0.005 µM. The “HPLC-UV Measure Concentration” value ([1]; nominal 1.25 µM, 12h) was 1.239 ± 0.003 µM, the “HPLC-UV Measure Concentration” value ([1]; nominal 1.25 µM, 24h) was 1.253 ± 0.007 µM and the “HPLC-UV Measure Concentration” value ([1]; nominal 1.25 µM, 36h) was 1.242 ± 0.009 µM. For the same compound, the “HPLC-UV Measure Concentration” value ([1]; nominal 2.5 µM, 1h) was 2.510 ± 0.020 µM, the “HPLC-UV Measure Concentration” value ([1]; nominal 2.5 µM, 12h) was 2.506 ± 0.021 µM and the “HPLC-UV Measure Concentration” value ([1]; nominal 2.5 µM, 24h) was 2.430 ± 0.002 µM. For the same compound, the “HPLC-UV Measure Concentration” value ([1]; nominal 2.5 µM, 36h) was 2.483 ± 0.050 µM, the “HPLC-UV Measure Concentration” value ([1]; nominal 5 µM, 1h) was 5.001 ± 0.010 µM and the “HPLC-UV Measure Concentration” value ([1]; nominal 5 µM, 12h) was 4.963 ± 0.005 µM. For the same compound, the “HPLC-UV Measure Concentration” value ([1]; nominal 5 µM, 24h) was 5.012 ± 0.023 µM, the “HPLC-UV Measure Concentration” value ([1]; nominal 5 µM, 36h) was 4.980 ± 0.020 µM and the “HPLC-UV Measure Concentration” value ([1]; nominal 10 µM, 1h) was 10.000 ± 0.049 µM. The “HPLC-UV Measure Concentration” value ([1]; nominal 10 µM, 12h) was 9.908 ± 0.100 µM, the “HPLC-UV Measure Concentration” value ([1]; nominal 10 µM, 24h) was 9.930 ± 0.100 µM and the “HPLC-UV Measure Concentration” value ([1]; nominal 10 µM, 36h) was 9.850 ± 0.150 µM. The “expression of P53, bax, bcl-2, cleaved caspase-3” value [2] was “over expression of P53, up-regulation of bax and down-regulation of bcl-2”.

Source: article PMC6624297 (Cell Death & Disease, 2019)
